Results on 1 compound are retold here after US20240415918A1, “Polypeptide and its use as a CCK receptor agonist/antagonist” (Centre for Regenerative Medicine & Health, Hong Kong …, priority 2021, published 2024).

In general, EC50 refers to the midpoint of the concentration-response curve.

“Also recorded” adds a separate entry of the source.

The subject of assay [1] is neocortex of Alzheimer's mice. The assay can be described thus: Long-term potentiation, in vitro field potential recording of brain slices (MED64), Alzheimer's mice. Format: cell-based. The note with it: compound injected for five minutes. The source says:
An in vitro electrophysiological electrical signal recording method was used to investigate whether compound HT-267 can induce long-term potentiation in the neocortex of Alzheimer's mice. The MED64 low-noise multi-electrode recording system was used to record the electrical signals of brain slices cultured in vitro. […] It was shown that compound HT-267 could induce long-term potentiation in the neocortex of Alzheimer's mice.

The next assay relates to memory-deficient mice. The assay can be described thus: Morris water maze, memory-deficient mice. The assay is classed as in vivo. As to conditions: intraperitoneal injection, CCK4 four times a day 10 days, HT compounds once a day 8 days. The source says: Adult memory-deficient mice were housed under standard conditions with free access to food and water. Our Morris water maze experiment for testing memory-deficient mice mainly included two parts: positioning navigation experiment and space exploration experiment. The experimental methods were the same as Example 5. We randomized memory-deficient mice into six groups, with the first group given intraperitoneal injection of the CCK4 solution, the second group given intraperitoneal injection of the solvent of CCK4 solution as a control, the third group given intraperitoneal injection of the compound HT-267 solution, the fourth group given intraperitoneal injection of the compound HT-177 solution, the fifth group given intraperitoneal injection of the compound HT-178 solution, and the sixth group given intraperitoneal injection of the solvent of compound solution as a control. In the positioning navigation experiment, the treatment and training methods of the first and the second groups were the same as those of the first and second groups in Example 5, that is, four times of treatment a day, four times of training a day, for a total of 10 days of training. The treatment and training methods of the third to sixth groups were the same as the third and fourth groups in Example 5, that is, one treatment a day, four times of training a day, for a total of 8 days of training. In the space exploration experiment, the spatial memory ability of mice was tested in the same way for each group.

Assay [2] concerns tri-transgenic Alzheimer's mice (3×Tg-AD). The assay can be described thus: Morris water maze, Alzheimer's mice. Format: in vivo. As to conditions: intraperitoneal injection. The source says:
Adult male tri-transgenic Alzheimer's mice (3×Tg-AD) were housed under standard conditions with free access to food and water. Our Morris water maze experiment for testing Alzheimer's mice mainly included two parts: positioning navigation experiment and space exploration experiment. The positioning navigation experiment lasted for 8-10 days, and the mice were put into the water four times a day from four entry points facing the pool wall, and the time they spent in finding the hidden platform under the water surface (evasion latency) was recorded. The space exploration experiment was to remove the platform after the positioning navigation experiment, and then put the mice into the pool, record their swimming tracks within one minute, investigate the memory of the mice on the original platform, and calculate the proportion of exploration duration of the mice in the quadrant where the original platform was located (target quadrant). Alzheimer's mice were confirmed to have memory deficiency in the Morris water maze experiment, showing not only a longer evasion latency for positioning the hidden platform in the positioning navigation experiment, but also a worse memory backtracking ability in the space exploration experiment. We randomized Alzheimer's mice into four groups, with the first group given intraperitoneal injection of the CCK4 solution, the second group given intraperitoneal injection of the solvent of CCK4 solution as a control, the third group given intraperitoneal injection of the compound HT-267 solution, and the fourth group given intraperitoneal injection of the solvent of HT-267 solution as a control.

Assay [3] deals with T1, CCK-B receptors (CHO-CCK) (Homo sapiens, UniProt P32239).
T1 construct: expressed in transfected cells; host or cells: CHO (CHO-CCK model cells)
T1 sequence (P32239 1-447): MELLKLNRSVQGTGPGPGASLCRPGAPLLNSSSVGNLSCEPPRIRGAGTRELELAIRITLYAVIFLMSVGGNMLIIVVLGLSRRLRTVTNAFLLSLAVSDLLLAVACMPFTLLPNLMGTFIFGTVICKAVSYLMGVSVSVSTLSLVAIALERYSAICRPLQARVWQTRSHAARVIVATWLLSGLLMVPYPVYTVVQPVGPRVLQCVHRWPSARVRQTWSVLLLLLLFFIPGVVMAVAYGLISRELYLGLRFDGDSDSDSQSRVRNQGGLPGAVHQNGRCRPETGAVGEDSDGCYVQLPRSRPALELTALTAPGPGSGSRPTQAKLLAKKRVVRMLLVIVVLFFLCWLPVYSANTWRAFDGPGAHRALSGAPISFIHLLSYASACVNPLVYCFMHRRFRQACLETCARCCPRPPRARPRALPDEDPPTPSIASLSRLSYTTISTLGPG
The assay can be described thus: Calcium flux (Fluo-8) antagonist test on CHO-CCK model cells in presence of CCK8. The assay is classed as cell-based. As to conditions: in presence of 10 nM CCK8. A general note: Calcium assays in cells follow changes in intracellular calcium, usually with a dye or a luminescent sensor.

Assay [4] concerns the target T1, CCK-B receptors (CHO-CCK). Kind of assay: Calcium flux (Fluo-8) agonist test on CHO-CCK model cells. Format: cell-based. The note with it: CHO-CCK cells. In short, it runs like this: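 Agonist-mode Fluo-8 calcium flux read on CHO-CCK cells after dye loading 30 min at 37 °C plus 30 min at room temperature.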
The subject of assay [5] is neocortex of memory-deficient mice. The assay can be described thus: Long-term potentiation, in vitro field potential recording of brain slices (MED64), memory-deficient mice. As to conditions: compound injected for five minutes. The assay is classed as cell-based. The source says:
An in vitro electrophysiological electrical signal recording method was used to investigate whether compound HT-267, compound HT-177, and compound HT-178 can induce long-term potentiation in the neocortex of memory-deficient mice. The MED64 low-noise multi-electrode recording system was used to record the electrical signals of brain slices cultured in vitro.

In the case of `CSCC[C@H](NC(=O)[C@@H](Cc1c[nH]c2ccccc12)NC(C)=O)C(=O)N[C@@H](CC(=O)O)C(=O)N[C@@H](Cc1cccc(Br)c1)C(N)=O` [HT-267, Ac-D-Trp-Met-Asp-Phe(3-Br)-NH2], the “basal field potential after administration (long-term potentiation)” value in assay [1] is “enhanced, and the enhancement lasted for more than one hour”; in assay [5], “enhanced, and the enhancement lasted for more than one hour”. The “proportion of exploration duration in the target quadrant vs control” value in the assay with memory-deficient mice is reported as “significantly higher than that in the control group; also recorded: best effect”; in assay [2], “significantly higher than the control group; also recorded: slightly better than the CCK4 administration group”. The “spatial exploration tracks in space exploration experiment” value in assay [2] is recorded as “more spatial exploration tracks at the original position of the platform”. For the same compound, the “evasion latency in positioning navigation experiment vs control” value in assay [2] (CCK4 four times a day 10 days, HT-267 once a day 8 days) is on record as “shorter than that of the control group”. The EC50 in assay [3] came to 23.8 nM; in assay [4] (Fluo-8 calcium flux, 100% control = 20 nM CCK8), 0.113 nM. Moreover, in assay [4] (calcium signal), the “agonistic/antagonistic activity on CCK-B receptors (in words)” value is given as “more active”.
